The assay deals with T1, APOL1 G1 (Homo sapiens, UniProt O14791, I384M/S342G).
T1 sequence (O14791 28-398 S342G/I384M): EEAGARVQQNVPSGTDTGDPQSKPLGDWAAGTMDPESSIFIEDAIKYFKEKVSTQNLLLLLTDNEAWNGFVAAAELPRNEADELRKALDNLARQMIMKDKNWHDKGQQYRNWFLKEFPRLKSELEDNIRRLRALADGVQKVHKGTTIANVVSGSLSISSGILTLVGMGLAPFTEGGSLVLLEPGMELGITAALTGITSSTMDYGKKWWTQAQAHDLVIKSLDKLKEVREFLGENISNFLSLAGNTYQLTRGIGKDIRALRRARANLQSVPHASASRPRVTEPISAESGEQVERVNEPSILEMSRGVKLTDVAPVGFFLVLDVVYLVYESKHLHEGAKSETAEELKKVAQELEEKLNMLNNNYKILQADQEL
The assay can be described thus: MultiTox-Fluor Multiplex Cytotoxicity Assay, tet-inducible APOL1 G1 T-REx-HEK293 cells. Format: cell-based. Also noted: expressed in transfected cells; host or cells: T-REx HEK293, clone G1 DC3.25 (pAAVS1-Puro-APOL1 G1). Particulars: for IC90: read-out: Multi-Tox Assay IC90; for IC50: IP50 = IC50 for cell proliferation; for Emax: read-out: Multi-Tox Assay Max Activity (%). How it is done:
The MultiTox-Fluor Multiplex Cytotoxicity Assay is a single-reagent-addition, homogeneous, fluorescence assay that measures the number of live and dead cells simultaneously in culture wells. The assay measures cell viability and cytotoxicity by detecting two distinct protease activities. The live-cell protease activity is restricted to intact viable cells and is measured using a fluorogenic, cell-permeant peptide glycyl-phenylalanylamino fluorocoumarin (GF-AFC) substrate. The substrate enters intact cells, where it is cleaved to generate a fluorescent signal proportional to the number of living cells. […] A second, cell-impermeant, fluorogenic peptide substrate (bis-AAF-R110 Substrate) is used to measure dead-cell protease that has been released from cells that have lost membrane integrity. A ratio of dead to live cells is used to normalize data.
Briefly, the tet-inducible transgenic APOL1 T-REx-HEK293 cell lines were incubated with 50 ng/mL tet to induce APOL1 in the presence of 3-(2-(4-fluorophenyl)-1H-indol-3-yl)-N-((3S,4R)-4-hydroxy-2-oxopyrrolidin-3-yl)propenamide at […], 0.0045, 0.0015, 0.0005 µM in duplicate for 24 hours in a humidified 37°C incubator. The MultiTox reagent was added to each well and placed back in the incubator for an additional 30 minutes. The plate was read on the EnVision plate reader. A ratio of dead to live cells was used to normalize, and data was imported, analyzed and fit using Genedata Screener (Basel, Switzerland) software. Data was normalized using percent of control, no tet (100% viability), and 50 ng/mL tet treated (0% viability),and fit using Smart Fit. The reagents, methods, and complete protocol for the MultiTox assay are described below. Table 42. Reagents Used in the Multi-Tox Assay
Human embryonic kidney (HEK293) cell lines containing a tet-inducible expression system (T-REx™; Invitrogen, Carlsbad, CA) and Adeno-associated virus site 1 pAA VS1-Puro-APOL1 G0 or pAAVS1-Puro-APOL1 G1 or pAAVS1-Puro-APOL1 G2 Clones G0 DC2.13, G1 DC3.25, and G2 DC4.44 were grown in a T-225 flask at ~90% confluency in cell growth media (DMEM, 10% Tet-free FBS, 2 mM L-glutamine, 100 Units/mL penicillin-streptomycin, 5 µg/mL blasticidin S HCl, 1 µg/mL puromycin dihydrochloride). Cells were washed with DPBS and then trypsinized to dissociate from the flask. Media was used to quench the trypsin, cells were then pelleted at 200g and resuspended in fresh cell assay media (DMEM, 2% Tet-free FBS, 2 mM L-glutamine, 100 Units/mL penicillin-streptomycin). Cells were counted and diluted to 1.17 x 10^6 cells/mL. 20 µL of cells (23,400/well) were dispensed to every well of a 384-well Poly-D-Lysine coated plate using the Multidrop dispenser. The plates were then incubated at room temperature for one hour.
Tetracycline is needed to induce APOL1 expression. 1 mg/mL tet stock in water was diluted to 250 ng/mL (5X) in cell assay media. 60 µL of cell assay media (no tet control) was dispensed in columns 1 and 24, and 60 µL of 5X tet was dispensed in 384-PP-round bottom plate in columns 2 to 23 with the Multidrop dispenser.
Assay ready plates from the Global Compound Archive were ordered using template 384_APOL1Cell_DR10n2_50uM_v3. Compounds were dispensed at 200 nL in DMSO. The final top concentration was 10 µM with a 10 point 3-fold dilution in duplicate in the MultiTox assay.
20 µL were transferred from the 5X tet plate to the ARP and mixed, then 5 µL of 5X tet and the compounds were transferred to the cell plate and mixed using the Bravo. The cell plate was placed in the humidified 37°C 5% CO2 incubator for 24 hours.
The MultiTox-Fluor Multiplex Cytotoxicity Assay was performed in accordance with the manufacturer's protocol. […]

Where [1] appears, read: HEK293, Multi-Tox Assay, APOL1 variant (G0/G1/G2) of the HEK293 cells not given.
The mark [2] stands for this setting: Multi-Tox Assay, APOL1 variant not given.
Setting [3] is: Multi-Tox Assay, APOL1 variant (G0/G1/G2) not stated in Table 46.
Where [4] appears, read: Multi-Tox Assay, APOL1 variant not stated in Table 46.

Where two headings read alike, the source gives them in different places.

From patent EP4810040A2, “INHIBITORS OF APOL1 AND METHODS OF USING SAME” (priority 2020, dated 2022) come the findings set out here.

Turning to `COc1ccccc1-c1ncc([C@@H]2C[C@]3(C[C@H](C)N2)OCCc2cc(Cl)sc23)cn1` (racemic) [Compound 105], under setting [1], the IC90 was in the range of 50 to 500 nM. Besides, the “Multi-Tox Assay Max Activity (%)” value under setting [2] was 99.3%.
As to `C[C@H]1C[C@@]2(C[C@@H](c3cn(Cc4ccc5nc(O)[nH]c5c4)nn3)N1)OCC(F)(F)c1cc(Cl)sc12` [Compound 366], the IC90 under setting [3] was over 500 nM. For the same compound, under setting [4], the “Multi-Tox Assay Max Activity (%)” value is 95.0% and the IC50 lay within 50 to 500 nM.
With `C[C@H]1C[C@@]2(C[C@@H](CC3CCOCC3)N1)OCCc1cc(Cl)sc12` [Compound 219, (2S,6R)-2-chloro-2'-methyl-6'-(tetrahydropyran-4-ylmethyl)spiro[4,5-dihydrothieno[2,3-c]pyran-7,4'-piperidine]], under setting [1], the IC90 is over 500 nM. The Emax under setting [2] is 88.7%.
Consider `Cc1cccc(OCC(O)Cn2cc([C@@H]3C[C@]4(C[C@H](C)N3)OC[C@@H](O)c3cc(Cl)sc34)nn2)c1` (stereo partly shown) [Compound 260], for which, under setting [1], the IC90 fell in the range of 50 to 500 nM.
Regarding `C[C@H]1C[C@@]2(C[C@@H](c3cn(CC4CCCCO4)nn3)N1)OC[C@@H](O)c1cc(Cl)sc12` (stereo partly shown) [Compound 227], the IC90 under setting [1] was 50 to 500 nM. Further, under setting [2], the “Multi-Tox Assay Max Activity (%)” value is given as 100.0%.
For `COCCn1cc([C@@H]2C[C@]3(C[C@H](C)N2)OCC(F)(F)c2cc(Cl)sc23)nn1` [Compound 323] the same measures were 50 to 500 nM and 100.0%.
Turning to `Cc1nn(C)cc1[C@@H]1C[C@]2(C[C@H](C)N1)OCCc1cc(Cl)sc12` (racemic) [Compound 142], the IC90 under setting [1] was 50 to 500 nM.
With `C[C@H]1C[C@@]2(C[C@@H](c3ncccc3O)N1)OCCc1cc(Cl)sc12` (racemic) [Compound 172], the IC90 under setting [1] was over 500 nM. Also, under setting [2], the “Multi-Tox Assay Max Activity (%)” value was 52.0%.
In the case of `Cc1cc([C@@H]2C[C@]3(C[C@H](C)N2)OCCc2cc(Cl)sc23)ccn1` (racemic) [Compound 21, (2S)-2-chloro-2'-methyl-6'-(2-methyl-4-pyridyl)spiro[4,5-dihydrothieno[2,3-c]pyran-7,4'-piperidine]], under setting [1], the IC90 was under 50 nM. Also, the Emax under setting [2] turned out to be 99.7%.
In the case of `C[C@H]1C[C@@]2(C[C@@H](c3cn(Cc4cccc(O)c4)nn3)N1)OCC(F)(F)c1cc(Cl)sc12` [Compound 320], under setting [1], the IC90 is over 500 nM. Also, the “Multi-Tox Assay Max Activity (%)” value under setting [2] is recorded as 95.0%.
With `C[C@H]1C[C@@]2(C[C@@H](c3cn(C)nn3)N1)OCCc1sc(C(F)(F)F)cc12` [Compound 8, (2'S,4S,6'S)-2'-methyl-6'-(1-methyltriazol-4-yl)-2-(trifluoromethyl)spiro[6,7-dihydrothieno[3,2-c]pyran-4,4'-piperidine]], the IC90 under setting [1] was under 50 nM. The “Multi-Tox Assay Max Activity (%)” value under setting [2] is given as 100.0%.
For `C[C@H]1C[C@@]2(C[C@@H](c3cn(Cc4ccccn4)nn3)N1)OCC(F)(F)c1cc(Cl)sc12` [Compound 332] the same measures were 50 to 500 nM and 96.0%.
As for `Cc1cncc([C@@H]2C[C@]3(C[C@H](C)N2)OCCc2cc(Cl)sc23)c1` (racemic) [Compound 64], the IC90 under setting [1] is under 50 nM. Besides, under setting [2], the Emax amounted to 100%.
As for `CNC(=O)c1cccc(C2CC3(CC(C)N2)OCCc2cc(Cl)sc23)c1` (stereo not shown) [Compound 27], under setting [1], the IC90 is under 50 nM. In addition, the “Multi-Tox Assay Max Activity (%)” value under setting [2] is 100.3%.
For `COc1ccc(Cn2cc([C@@H]3C[C@]4(C[C@H](C)N3)OCC(F)(F)c3cc(Cl)sc34)nn2)cc1` [Compound 335] the same measures were over 500 nM and 96.0%.
As for `C[C@H]1C[C@@]2(C[C@@H](c3cn(Cc4nc5ncccc5[nH]4)nn3)N1)OCC(F)(F)c1cc(Cl)sc12` [Compound 346], the IC90 under setting [1] was 50 to 500 nM.
Regarding `COc1cccc(Cn2cc([C@@H]3C[C@]4(C[C@H](C)N3)OC[C@@H](O)c3cc(Cl)sc34)nn2)c1` [Compound 278], the IC90 under setting [1] lay within 50 to 500 nM. Further, the “Multi-Tox Assay Max Activity (%)” value under setting [2] is given as 100.0%.
Consider `C[C@H]1C[C@@]2(C[C@@H](c3ccccc3)N1)OCCc1cc(Cl)sc12` (racemic) [Compound 81], for which, under setting [1], the IC90 was under 50 nM. Moreover, the Emax under setting [2] was 99.7%.
Regarding `C[C@H]1C[C@@]2(C[C@@H](c3cn(Cc4cnc5cnccn45)nn3)N1)OCC(F)(F)c1cc(Cl)sc12` [Compound 358], the IC90 under setting [1] was under 50 nM. The “Multi-Tox Assay Max Activity (%)” value under setting [2] was found to be 98.0%.
Turning to `Cc1ncc(Cn2cc([C@@H]3C[C@]4(C[C@H](C)N3)OCC(F)(F)c3cc(Cl)sc34)nn2)cn1` [Compound 318], the IC90 under setting [1] is under 50 nM.
Turning to `C[C@H]1C[C@@]2(C[C@@H](c3cn(Cc4ccc(S(C)(=O)=O)cc4)nn3)N1)OCC(F)(F)c1cc(Cl)sc12` [Compound 355], under setting [1], the IC90 fell in the range of 50 to 500 nM. For the same compound, the “Multi-Tox Assay Max Activity (%)” value under setting [2] came out at 98.0%.
For the compound `C[C@H]1CC2(CC(c3cn(C)cn3)N1)OCC(O)c1cc(Cl)sc12` (single isomer, unassigned) [Compound 178], the concentration for an effect of 90% (IC90) under setting [1] was under 50 nM. In addition, the Emax under setting [2] amounted to 99.7%.
As to `CCn1cc(Cn2cc([C@@H]3C[C@]4(C[C@H](C)N3)OC[C@@H](O)c3cc(Cl)sc34)nn2)cn1` [Compound 290], under setting [1], the IC90 was in the range of 50 to 500 nM.
Consider `C[C@H]1C[C@@]2(C[C@@H](c3cc(C(F)(F)F)[nH]n3)N1)OCCc1cc(Cl)sc12` [Compound 119], for which the IC90 under setting [1] is 50 to 500 nM. In addition, the “Multi-Tox Assay Max Activity (%)” value under setting [2] worked out at 99.7%.
As for `CC(C)N1CC(Cn2cc([C@@H]3C[C@]4(C[C@H](C)N3)OCC(F)(F)c3cc(Cl)sc34)nn2)CC1=O` (stereo partly shown) [Compound 327], under setting [1], the IC90 fell in the range of 50 to 500 nM. Besides, the “Multi-Tox Assay Max Activity (%)” value under setting [2] was 98.0%.
`C[C@H]1C[C@@]2(C[C@@H](c3ccc(C(N)=O)cc3)N1)OCCc1cc(Cl)sc12` (racemic) [Compound 47]: the IC90 under setting [1] was under 50 nM. For the same compound, the Emax under setting [2] turned out to be 99.3%.
Turning to `Cc1nc[nH]c1[C@@H]1C[C@]2(C[C@H](C)N1)OCCc1cc(Cl)sc12` (racemic) [Compound 161], the IC90 under setting [1] is over 500 nM. Moreover, the “Multi-Tox Assay Max Activity (%)” value under setting [2] worked out at 92.4%.
In the case of `Cc1cc(Cn2cc([C@@H]3C[C@]4(C[C@H](C)N3)OCC(F)(F)c3cc(Cl)sc34)nn2)ccn1` [Compound 336], under setting [1], the concentration for an effect of 90% (IC90) lay in the range of 50 to 500 nM.
Take `C[C@H]1C[C@@]2(C[C@@H](c3cn(Cc4ncnc5[nH]ccc45)nn3)N1)OCC(F)(F)c1cc(Cl)sc12` [Compound 350]: the IC90 under setting [1] was 50 to 500 nM.
For `COc1ccc(Cn2cc([C@@H]3C[C@]4(C[C@H](C)N3)OCC(F)(F)c3cc(Cl)sc34)nn2)cc1F` [Compound 362], the IC90 under setting [3] was 50 to 500 nM. Besides, under setting [4], the “Multi-Tox Assay Max Activity (%)” value was 98.0% and the IC50 fell in the range of 50 to 500 nM.
